One block for each compound: values may come before it.
What was measured:
[1] = system: oxaliplatin-treated Balb/C mice; details: oxaliplatin 6 mg/kg i.p. twice weekly for 4 weeks
[2] = Comparative pharmacokinetics versus reference compounds, rat
[3] = Comparative pharmacokinetics versus reference compounds, dog
[4] = Water solubility testing
[5] = Rat, 2 hours after intravenous administration
[6] = Rat, IV, dosing level 3 mg/kg (level not given for Reference 2)
[7] = Rat, PO, dosing level 3 mg/kg (level not given for Reference 2)
[8] = Dog, IV, dosing level 1 mg/kg (level not given for Reference 2)
[9] = Dog, PO, dosing level 2 mg/kg (level not given for Reference 2)

Compound: O=C1[O][Pt]2([NH][C@@H]3CCCC[C@H]3[NH]2)[O]C1=O [Oxaliplatin, reference compound]
decrease in caudal NCV vs. vehicle-treated mice [1]: 8±1.1% | reduction in IENFD in the footpads vs. vehicle-treated mice [1]: −31.7±3.5% | decrease in digital potential amplitude ([1]; not statistically significant): 13.5+/−6.4%

2 hr brain concentration [2, 5]: 79.6 ng · g | 2 hr plasma concentration [2, 5]: 790.3 ng/mL | AUC (0-t) [2, 6]: 8412.7 ng·h/mL | CLz/F [2, 6]: 5 mL/min/kg | AUC (0-t) [2, 7]: 6139.8 ng·h/mL | CLz/F [2, 7]: 6.7 mL/min/kg | F [2, 7]: 73.0% | Kp at 2 h ([2]; rat, brain/plasma, iv): 0.1 | Cmax ([2]; rat, plasma, iv, 3 mg/kg): 1220 ng/mL | half-life ([2]; rat, plasma, iv, 3 mg/kg): 5.8 h | Cmax ([2]; rat, plasma, po, 3 mg/kg): 481 ng/mL | Vd/F ([2]; rat, plasma, po, 3 mg/kg): 3.3 L/kg | half-life ([2]; rat, plasma, po, 3 mg/kg): 6.1 h | tmax ([2]; rat, plasma, po, 3 mg/kg): 6 h | AUC (0-t) [3, 8]: 14810.5 ng·h/mL | CLz/F [3, 8]: 0.67 mL/min/kg | AUC (0-t) [3, 9]: 28288.2 ng·h/mL | CLz/F [3, 9]: 1 mL/min/kg | F [3, 9]: 95.5% | Cmax ([3]; dog, in vivo, iv, 1 mg/kg): 1520 ng/mL | half-life ([3]; dog, in vivo, iv, 1 mg/kg): 22.2 h | Cmax ([3]; dog, in vivo, po, 2 mg/kg): 2040 ng/mL | Vd/F ([3]; dog, in vivo, po, 2 mg/kg): 0.9 L/kg | half-life ([3]; dog, in vivo, po, 2 mg/kg): 11.8 h | tmax ([3]; dog, in vivo, po, 2 mg/kg): 0.67 h
Compound: COc1ccc([C@H](C)NC(=O)N(O)C2CCN(C)CC2)c2ccccc12 [Reference 2]

solubility [4]: < 2000 µg/mL
Compound: COc1ccc(C(C)NC(=O)N(C)C2CCN(C)CC2(C)C)c(Cl)c1Cl (centres unmarked) [free base, 3-(1-(2,3-dichloro-4-methoxyphenyl)ethyl)-1-methyl-1-(1,3,3-trimethylpiperidin-4-yl)urea]
